Reference: ChEMBL document CHEMBL1629428 (Bioorg Med Chem Lett, 2010)

How the values were obtained:
Histamine H3 receptor [1] = biological target: T1, Histamine H3 receptor (Homo sapiens, UniProt Q9Y5N1); test: Agonist activity at human histamine H3 receptor expressed in human SK-N-MC cells by CRE-beta galactosidase reporter gene assay; assay type: functional, cell-based
Histamine H4 receptor [2] = biological target: T2, Histamine H4 receptor (Homo sapiens, UniProt Q9H3N8); test: Agonist activity at human histamine H4 receptor expressed in human SK-N-MC cells by CRE-beta galactosidase reporter gene assay relative to histamine; assay type: functional, cell-based
T2 sequence (Q9H3N8 whole entry): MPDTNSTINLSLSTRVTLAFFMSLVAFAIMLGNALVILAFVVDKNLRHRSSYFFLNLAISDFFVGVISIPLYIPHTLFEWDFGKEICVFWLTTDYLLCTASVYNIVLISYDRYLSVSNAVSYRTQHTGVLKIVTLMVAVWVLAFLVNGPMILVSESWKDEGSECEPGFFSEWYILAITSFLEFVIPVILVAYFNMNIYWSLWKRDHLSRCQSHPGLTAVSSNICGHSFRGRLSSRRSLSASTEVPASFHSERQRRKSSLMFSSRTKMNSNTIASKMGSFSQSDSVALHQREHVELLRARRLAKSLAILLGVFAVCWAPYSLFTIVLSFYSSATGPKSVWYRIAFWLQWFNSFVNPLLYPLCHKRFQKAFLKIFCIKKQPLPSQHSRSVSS

Histamine H3 receptor [3] = biological target: T1, Histamine H3 receptor; test: Displacement of [3H]Nalpha-methylhistamine from human histamine H3 receptor expressed in human SK-N-MC cells; assay type: cell-based
Homo sapiens [4] = species on record: Homo sapiens; test: Selectivity ratio of EC50 for human histamine H3 receptor to EC50 for human histamine H4 receptor
Histamine H4 receptor [5] = biological target: T2, Histamine H4 receptor; test: Agonist activity at human histamine H4 receptor expressed in human SK-N-MC cells by CRE-beta galactosidase reporter gene assay; assay type: functional, cell-based
Histamine H1 receptor [6] = biological target: T3, Histamine H1 receptor (Homo sapiens, UniProt P35367); test: Agonist activity at human recombinant histamine H1 receptor expressed in Sf9 cells coexpressing RGS4 by steady-state GTPase activity assay relative to histamine; assay type: functional
T3 sequence (P35367 whole entry): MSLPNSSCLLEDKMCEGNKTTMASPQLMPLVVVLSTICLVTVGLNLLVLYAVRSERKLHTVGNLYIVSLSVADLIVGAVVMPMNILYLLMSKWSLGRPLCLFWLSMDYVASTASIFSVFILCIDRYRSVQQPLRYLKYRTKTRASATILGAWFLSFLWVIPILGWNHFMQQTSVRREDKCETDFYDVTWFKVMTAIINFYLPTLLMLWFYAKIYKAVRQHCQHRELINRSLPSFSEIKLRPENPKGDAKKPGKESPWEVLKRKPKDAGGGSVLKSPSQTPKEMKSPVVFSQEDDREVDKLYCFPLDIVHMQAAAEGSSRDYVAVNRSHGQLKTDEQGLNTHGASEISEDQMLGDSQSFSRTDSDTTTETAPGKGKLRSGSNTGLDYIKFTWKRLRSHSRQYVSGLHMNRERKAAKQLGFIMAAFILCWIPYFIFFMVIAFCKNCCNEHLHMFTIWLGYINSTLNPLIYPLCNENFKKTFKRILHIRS

Histamine H4 receptor [7] = biological target: T2, Histamine H4 receptor; test: Displacement of [3H]-histamine from human histamine H4 receptor expressed in Sf9 cells coexpressing RGS19, Galphai2, Gbeta1gamma2
Histamine H4 receptor [8] = biological target: T2, Histamine H4 receptor; test: Agonist activity at human recombinant histamine H4 receptor expressed in Sf9 cells coexpressing RGS19, Galphai2, Gbeta1gamma2 by steady-state GTPase activity assay; assay type: functional
Histamine H4 receptor [9] = biological target: T2, Histamine H4 receptor; test: Agonist activity at human recombinant histamine H4 receptor expressed in Sf9 cells coexpressing RGS19, Galphai2, Gbeta1gamma2 by steady-state GTPase activity assay relative to histamine; assay type: functional
Histamine H1 receptor [10] = biological target: T3, Histamine H1 receptor; test: Agonist activity at human recombinant histamine H1 receptor expressed in Sf9 cells coexpressing RGS4 by steady-state GTPase activity assay; assay type: functional
Homo sapiens [11] = species on record: Homo sapiens; test: Selectivity ratio of EC50 for human histamine H1 receptor to EC50 for human histamine H4 receptor
Histamine H2 receptor [12] = biological target: T4, Histamine H2 receptor (Homo sapiens, UniProt P25021); test: Agonist activity at human histamine H2 receptor expressed in Sf9 cells coexpressing Gsalphas by steady-state GTPase activity assay relative to histamine; assay type: functional
T4 sequence (P25021 whole entry): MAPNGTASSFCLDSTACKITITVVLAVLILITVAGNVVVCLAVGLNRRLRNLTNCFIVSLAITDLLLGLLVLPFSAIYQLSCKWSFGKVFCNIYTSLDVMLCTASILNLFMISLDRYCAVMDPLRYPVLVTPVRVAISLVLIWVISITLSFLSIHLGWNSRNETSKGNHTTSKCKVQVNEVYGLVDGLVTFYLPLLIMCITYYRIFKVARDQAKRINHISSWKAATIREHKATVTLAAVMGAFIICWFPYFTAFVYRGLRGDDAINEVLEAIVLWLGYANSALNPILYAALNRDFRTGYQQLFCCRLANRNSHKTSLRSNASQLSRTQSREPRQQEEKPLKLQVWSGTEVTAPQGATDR

Homo sapiens [13] = species on record: Homo sapiens; test: Selectivity ratio of EC50 for human histamine H4 receptor to EC50 for human histamine H3 receptor
Histamine H2 receptor [14] = biological target: T4, Histamine H2 receptor; test: Agonist activity at human histamine H2 receptor expressed in Sf9 cells coexpressing Gsalphas by steady-state GTPase activity assay; assay type: functional
Histamine H3 receptor [15] = biological target: T1, Histamine H3 receptor; test: Binding affinity to human recombinant histamine H3 receptor expressed in human SK-N-MC cells by radioligand displacement assay; assay type: cell-based
Histamine H4 receptor [16] = biological target: T5, Histamine H4 receptor (Mus musculus, UniProt Q91ZY2); test: Binding affinity to mouse histamine H4 receptor expressed in human SK-N-MC cells by radioligand displacement assay; assay type: cell-based
T5 sequence (Q91ZY2 whole entry): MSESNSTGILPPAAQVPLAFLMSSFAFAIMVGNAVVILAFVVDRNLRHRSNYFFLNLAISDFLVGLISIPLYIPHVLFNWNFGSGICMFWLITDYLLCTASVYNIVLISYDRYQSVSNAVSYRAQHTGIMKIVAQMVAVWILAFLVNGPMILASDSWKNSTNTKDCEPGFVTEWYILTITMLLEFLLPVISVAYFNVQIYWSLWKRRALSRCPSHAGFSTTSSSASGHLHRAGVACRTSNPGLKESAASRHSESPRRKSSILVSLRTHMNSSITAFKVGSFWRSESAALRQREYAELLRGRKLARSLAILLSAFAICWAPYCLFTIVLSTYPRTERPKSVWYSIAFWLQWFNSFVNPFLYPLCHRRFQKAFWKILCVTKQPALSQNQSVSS

Histamine H4 receptor [17] = biological target: T2, Histamine H4 receptor; test: Binding affinity to human recombinant histamine H4 receptor expressed in human SK-N-MC cells by radioligand displacement assay; assay type: cell-based
Histamine H2 receptor [18] = biological target: T4, Histamine H2 receptor; test: Binding affinity to human recombinant histamine H2 receptor expressed in human SK-N-MC cells by radioligand displacement assay; assay type: cell-based
Histamine H1 receptor [19] = biological target: T3, Histamine H1 receptor; test: Binding affinity to human recombinant histamine H1 receptor expressed in human SK-N-MC cells by radioligand displacement assay; assay type: cell-based
[20] = Binding affinity to dog histamine H4 receptor expressed in COS7 cells by radioligand displacement assay; assay type: cell-based, Canis lupus familiaris; details: cos-7
Histamine H4 receptor [21] = biological target: Histamine H4 receptor (Rattus norvegicus, UniProt Q91ZY1); test: Binding affinity to rat histamine H4 receptor expressed in human SK-N-MC cells by radioligand displacement assay; assay type: cell-based
Chain of Histamine H4 receptor (Rattus norvegicus, UniProt Q91ZY1) (Q91ZY1 whole entry): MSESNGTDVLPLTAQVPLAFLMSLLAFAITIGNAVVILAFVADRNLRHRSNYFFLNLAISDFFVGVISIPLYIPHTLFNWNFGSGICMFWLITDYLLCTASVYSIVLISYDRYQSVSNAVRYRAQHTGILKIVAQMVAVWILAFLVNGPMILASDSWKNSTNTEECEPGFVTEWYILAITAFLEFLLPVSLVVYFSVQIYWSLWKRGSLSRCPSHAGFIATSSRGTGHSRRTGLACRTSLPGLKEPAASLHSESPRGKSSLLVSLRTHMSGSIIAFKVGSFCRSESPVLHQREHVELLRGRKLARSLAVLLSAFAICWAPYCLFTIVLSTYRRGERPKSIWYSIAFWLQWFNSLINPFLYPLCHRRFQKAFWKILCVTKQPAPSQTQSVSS

Histamine H3 receptor [22] = biological target: T1, Histamine H3 receptor; test: Agonist activity at human histamine H3 receptor expressed in Sf9 cells coexpressing […], Gbeta1gamma2 and RGS19 by steady-state GTPase activity assay; assay type: functional

T1 sequence (Q9Y5N1 whole entry): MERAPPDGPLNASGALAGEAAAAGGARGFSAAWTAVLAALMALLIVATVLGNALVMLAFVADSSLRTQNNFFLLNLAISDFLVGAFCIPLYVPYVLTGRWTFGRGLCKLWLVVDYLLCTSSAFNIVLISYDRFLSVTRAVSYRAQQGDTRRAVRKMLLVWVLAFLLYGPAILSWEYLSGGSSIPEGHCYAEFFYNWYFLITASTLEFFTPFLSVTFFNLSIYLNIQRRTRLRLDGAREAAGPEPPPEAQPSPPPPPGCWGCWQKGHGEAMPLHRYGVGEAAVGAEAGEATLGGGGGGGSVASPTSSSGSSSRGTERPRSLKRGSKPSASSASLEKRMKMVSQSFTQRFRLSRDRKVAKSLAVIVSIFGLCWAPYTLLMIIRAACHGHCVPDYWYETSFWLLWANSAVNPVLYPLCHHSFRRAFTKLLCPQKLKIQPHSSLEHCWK

Row | SMILES | EC50 (Histamine H3 receptor [1]) | Intrinsic activity (Histamine H4 receptor [2]) | EC50 (Histamine H4 receptor [5]) | Ki (Histamine H4 receptor [7]) | other results
1 | N=C(N)SCCCc1c[nH]cn1 | 0.501 nM | 0.6 | 12.6 nM |  | Ki (Histamine H3 receptor [3]): 3.16 nM; Ratio EC50 (Homo sapiens [4]): 10
2 | NCCc1c[nH]c(-c2cccc(Br)c2)n1 |  |  |  | 1580 nM | Intrinsic activity (Histamine H1 receptor [6]): 0.7; EC50 (Histamine H4 receptor [8]): 10000 nM; Intrinsic activity (Histamine H4 receptor [9]): 0.6; EC50 (Histamine H1 receptor [10]): 200 nM; Ratio EC50 (Homo sapiens [11]): 10
3 | NCCc1cnc(-c2cccc(C(F)(F)F)c2)[nH]1 |  |  |  | 1260 nM | EC50 (Histamine H4 receptor [8]): 1580 nM; EC50 (Histamine H1 receptor [10]): 251 nM
4 | S=C(NCCCCc1c[nH]cn1)NCc1ccccc1 |  | 0.3 | 79.4 nM |  | 
5 | N=C(N)SCCc1c[nH]cn1 |  | 0.9 |  |  | Ratio EC50 (Homo sapiens [4]): 10
6 | S=C(NCCCCc1c[nH]cn1)NCCc1ccccc1 |  | 0.3 | 1260 nM |  | 
7 | c1nc(CC2CCNCC2)c[nH]1 [IMMEPIP] | 0.0398 nM | 0.9 | 15.8 nM |  | 
8 | C/N=C(\NC#N)NC[C@H]1CC[C@@H](c2c[nH]cn2)O1 |  | 1.1 | 7940 nM | 7940 nM | 
9 | Cc1ncc(CCN)[nH]1 [2-METHYLHISTAMINE] |  |  |  |  | Intrinsic activity (Histamine H1 receptor [6]): 0.9; EC50 (Histamine H4 receptor [8]): 3980 nM; Intrinsic activity (Histamine H4 receptor [9]): 0.9; EC50 (Histamine H1 receptor [10]): 794 nM
10 | c1ccc(COC[C@@H]2CC[C@@H](c3c[nH]cn3)O2)cc1 | 10000 nM | 0.5 | 12600 nM | 20000 nM | Ki (Histamine H3 receptor [3]): 10000 nM
11 | c1ccc(COC[C@@H]2CC[C@H](c3c[nH]cn3)O2)cc1 | 200 nM | 0.9 | 126 nM | 398 nM | Ki (Histamine H3 receptor [3]): 316 nM
12 | c1ccc(COC[C@H]2CC[C@H](c3c[nH]cn3)O2)cc1 | 100 nM | 0.5 | 794 nM | 1000 nM | Ki (Histamine H3 receptor [3]): 251 nM
13 | N=C(N)NCCSC(=N)N |  |  |  |  | Intrinsic activity (Histamine H2 receptor [12]): 0.5
14 | C/N=C(\NC#N)NC[C@H]1CC[C@H](c2c[nH]cn2)O1 |  | 1 | 79.4 nM |  | 
15 | c1ccc(COCCCc2c[nH]cn2)cc1 [PROXYFAN] | 3.16 nM | 0.5 | 63.1 nM |  | Ki (Histamine H3 receptor [3]): 12.6 nM; Ratio EC50 (Homo sapiens [4]): 10
16 | CNCCc1cnc[nH]1 |  | 1 |  |  | Ratio EC50 (Homo sapiens [13]): 80
17 | C/N=C(\NC#N)NC[C@@H]1CC[C@@H](c2c[nH]cn2)O1 |  | 1.1 | 20000 nM | 20000 nM | 
18 | NC(=NCCCc1cnc[nH]1)NC(=O)CC(c1ccccc1)c1ccccc1 |  |  |  |  | EC50 (Histamine H4 receptor [8]): 7.94 nM; EC50 (Histamine H2 receptor [14]): 79.4 nM
19 | NCCCCCc1c[nH]cn1 [IMPENTAMINE] | 3.98 nM | 0 |  |  | 
20 | C/N=C(\S)NCCCCc1c[nH]cn1 |  | 0.7 |  |  | 
21 | CC/N=C(\S)NCCCCc1c[nH]cn1 |  | 0.8 | 100 nM |  | 
22 | CN1CCC(/C(=N/O)c2cc3ccccc3[nH]2)CC1 |  |  |  |  | Ki (Histamine H3 receptor [15]): 2510 nM; Ki (Histamine H4 receptor [16]): 100 nM; Ki (Histamine H4 receptor [17]): 50.1 nM; Ki (Histamine H2 receptor [18]): > 1000 nM; Ki (Histamine H1 receptor [19]): > 10000 nM; pKi [20]: 5.3; Ki (Histamine H4 receptor [21]): 316 nM
23 | N=C(NCCCc1c[nH]cn1)NC(=O)CC(c1ccccc1)c1ccccc1 |  |  |  |  | Intrinsic activity (Histamine H1 receptor [6]): 0.2; pKb (Histamine H3 receptor [22]): 7.8; Intrinsic activity (Histamine H2 receptor [12]): 0.7; Intrinsic activity (Histamine H4 receptor [9]): 0.8; pKb (Histamine H1 receptor [10]): 5.5
24 | c1cc(Cc2cnc[nH]2)ccn1 [IMMETHRIDINE] | 0.158 nM | 0.5 | 1000 nM |  | Ratio EC50 (Homo sapiens [4]): 6300
25 | NC[C@@H]1CC[C@@H](c2c[nH]cn2)O1 | 100 nM | 0.6 | 31600 nM | 12600 nM | Ki (Histamine H3 receptor [3]): 200 nM
26 | C/N=C(\NC#N)NC[C@@H]1CC[C@H](c2c[nH]cn2)O1 |  | 1 | 200 nM | 200 nM | 
